Laboratory results reported in US4323567A, “Arylmalonamido-1-oxadethiacephalosporins” (priority 1976, dated 1982).

Assays:
Test in all cases: Minimal inhibitory concentration, nutrient agar plate
Ps. aeruginosa 24 = assay type: cell-based, Pseudomonas aeruginosa; details: Pseudomonas aeruginosa, 24; as sodium salt, inoculum size 10^8, pH 7.0; read-out: Minimal inhibitory concentration
Klebsiella sp. 363 = assay type: cell-based; details: SP.363, as sodium salt, inoculum size 10^8, pH 7.0, read-out: Minimal inhibitory concentration
Enterobacter cloacae 233 = assay type: cell-based; details: Enterobacter cloacae, 233; as sodium salt, inoculum size 10^8, pH 7.0; read-out: Minimal inhibitory concentration
P. vulgaris No. 3 = assay type: cell-based; details: Proteus vulgaris, NO.3; as sodium salt, inoculum size 10^8, pH 7.0; read-out: Minimal inhibitory concentration
Klebsiella pneumoniae = assay type: cell-based; details: as sodium salt, inoculum size 10^8, pH 7.0, read-out: Minimal inhibitory concentration
[1] = system: Pseudomonas aeruginosa Denken; assay type: cell-based; details: as sodium salt, inoculum size 10^8, pH 7.0, read-out: Minimal inhibitory concentration
P. vulgaris CN-329 = assay type: cell-based; details: Proteus vulgaris, CN329; as sodium salt, inoculum size 10^8, pH 7.0; read-out: Minimal inhibitory concentration
Proteus mirabilis PR-4 = assay type: cell-based; details: PR4, as sodium salt, inoculum size 10^8, pH 7.0, read-out: Minimal inhibitory concentration
E. coli 377 = assay type: cell-based, Escherichia coli; details: Escherichia coli, 377; as sodium salt, inoculum size 10^8, pH 7.0; read-out: Minimal inhibitory concentration
P. morganii No. 9 = assay type: cell-based, Proteus morganii; details: Morganella morganii, NO.9; as sodium salt, inoculum size 10^8, pH 7.0; read-out: Minimal inhibitory concentration
E. coli JC-2 = assay type: cell-based; details: Escherichia coli, JC2; as sodium salt, inoculum size 10^8, pH 7.0; read-out: Minimal inhibitory concentration
Escherichia coli H = assay type: cell-based; details: as sodium salt, inoculum size 10^8, pH 7.0, read-out: Minimal inhibitory concentration
Ps. aeruginosa 25619 = assay type: cell-based, Pseudomonas aeruginosa; details: Pseudomonas aeruginosa, 25619; as sodium salt, inoculum size 10^8, pH 7.0; read-out: Minimal inhibitory concentration
E. coli 73 = assay type: cell-based, Escherichia coli; details: Escherichia coli, 73; as sodium salt, inoculum size 10^8, pH 7.0; read-out: Minimal inhibitory concentration
[2] = system: Serratia marsescens 13880; assay type: cell-based; details: Serratia, 13880; as sodium salt, inoculum size 10^8, pH 7.0; read-out: Minimal inhibitory concentration

SMILES | MIC (Ps. aeruginosa 24) | MIC (Klebsiella sp. 363) | MIC (Enterobacter cloacae 233) | MIC (P. vulgaris No. 3) | MIC (Klebsiella pneumoniae) | MIC [1] | MIC (P. vulgaris CN-329) | MIC (Proteus mirabilis PR-4) | MIC (E. coli 377) | MIC (P. morganii No. 9) | MIC (E. coli JC-2) | MIC (Escherichia coli H) | MIC (Ps. aeruginosa 25619) | MIC (E. coli 73) | MIC [2]
CC(=O)OCC1=C(C(=O)O)N2C(=O)[C@@H](NC(=O)Cc3cccs3)[C@H]2SC1 [Cefalotin, reference compound] | > 100 µg/mL | > 100 µg/mL | > 100 µg/mL | > 100 µg/mL | 1.6 µg/mL | > 100 µg/mL | > 100 µg/mL | 3.2 µg/mL | > 100 µg/mL | > 100 µg/mL | 12.5 µg/mL | 3.2 µg/mL | > 100 µg/mL | > 100 µg/mL | > 100 µg/mL
Cc1nnc(SCC2=C(C(=O)O)N3C(=O)[C@@H](NC(=O)Cn4cnnn4)[C@H]3SC2)s1 [Cefazolin, reference compound] | > 100 µg/mL | > 100 µg/mL | > 100 µg/mL | > 100 µg/mL | 3.2 µg/mL | > 100 µg/mL | > 100 µg/mL | 6.2 µg/mL | 100 µg/mL | > 100 µg/mL | 3.2 µg/mL | 1.6 µg/mL | > 100 µg/mL | > 100 µg/mL | > 100 µg/mL
Cn1nnnc1SCC1=C(C(=O)O)N2C(=O)[C@@H](NC(=O)C(C(=O)O)c3ccc(O)cc3)[C@H]2OC1 (stereo partly drawn) [Example III-6, 7β-(α-p-hydroxyphenyl-α-carboxyacetamido)-3-(1-methyltetrazol-5-yl)thiomethyl-1-oxadethia-3-cephem-4-carboxylic acid] | > 100 µg/mL | > 100 µg/mL | 0.78 µg/mL | > 100 µg/mL | 0.78 µg/mL | > 100 µg/mL | > 100 µg/mL | 0.78 µg/mL | 0.39 µg/mL | 0.78 µg/mL | 0.39 µg/mL | 0.2 µg/mL | 6.25 µg/mL | > 100 µg/mL | 0.78 µg/mL
CO[C@@]1(NC(=O)C(C(=O)O)c2ccc(OC(N)=O)cc2)C(=O)N2C(C(=O)O)=C(CSc3nnnn3C)CO[C@@H]21 (stereo partly drawn) [Example III-25, 7β-(α-p-carbamoyloxyphenyl-α-carboxyacetamido)-7α-methoxy-3-(1-methyltetrazol-5-yl)thiomethyl-1-oxadethia-3-cephem-4-carboxylic acid] | 100 µg/mL | 0.39 µg/mL | 0.78 µg/mL | 0.39 µg/mL | 0.39 µg/mL | > 100 µg/mL | 0.2 µg/mL | 0.2 µg/mL | 0.78 µg/mL | 0.2 µg/mL | 0.39 µg/mL | 0.1 µg/mL | 25 µg/mL | 1.56 µg/mL | 1.56 µg/mL
CO[C@@]1(NC(=O)C(C(=O)O)c2ccccc2)C(=O)N2C(C(=O)O)=C(CSc3nnnn3C)CO[C@@H]21 (stereo partly drawn) [III-13, 7β-(α-carboxy-α-phenylacetamido)-7α-methoxy-3-(1-methyltetrazol-5-yl)thiomethyl-1-oxadethia-3-cephem-4-carboxylic acid] | 50 µg/mL | 0.05 µg/mL | 0.2 µg/mL | 0.2 µg/mL | 0.1 µg/mL | 100 µg/mL | 0.1 µg/mL | 0.2 µg/mL | 0.2 µg/mL | 0.1 µg/mL | 0.01 µg/mL | 0.025 µg/mL | 12.5 µg/mL | 0.39 µg/mL | 0.39 µg/mL
